Here are results for 4 molecules from US20090030073A1, “PLANT-DERIVED THERAPEUTIC AGENT FOR MALIGNANT” (priority 2006, published 2009).

Structures are written as SMILES.

The data set relates to neuroblastoma cell strains IMR-32, SK—N—SH, and NB-39. The data set is described as follows: MTT assay, anti-malignant-tumor effect on neuroblastoma cell strains. The class given is cell-based. Conditions: 48 hours incubation. The method, then:
The anti-malignant-tumor effect of compounds (1), (2a), (2b), and (2c) on neuroblastoma cell strains IMR-32, SK—N—SH, and NB-39 was investigated using the MTT assay.
Specifically, each type of cells was seeded onto a 96-well plate so that the cell density was adjusted to 1×10^4 cells/well, and each drug compound was added to the wells 24 hours after seeding, followed by incubation under 5%-CO2 at 37° C. for 48 hours. Subsequently, an MTT solution was added to the wells, and blue formazan formed three hours after addition was well-mixed through pipetting. The absorbance of each well was measured at 570 nm (top) and 655 nm (bottom), and the survival cell rate with respect to the control group was calculated. In this assay, formation of blue formazan caused by activity of mitochondria is observed only when cells survive.
For orientation: Tetrazolium dyes change colour on reduction, which living cells bring about.
With `C=CCOc1c(OC)cc2c(c1OC)O[C@H](c1ccc3c(c1)OCO3)[C@H]2C` [compound (1)], the “cytotoxicity to neuroblastoma cells (survival cell rate, FIGS. 2 to 13)” value (from here on “cytotoxicity to neuroblastoma cells”) is on record as “intense cytotoxicity”.

`C=CC[C@]12CC=CC(=O)[C@@]1(O)OC(c1ccc3c(c1)OCO3)[C@H]2C` (stereo partly shown) [compound (2b), ferrearin C]: the “cytotoxicity to neuroblastoma cells” value is “intense cytotoxicity”.

In the case of `C=CC[C@]12CC=CC(=O)[C@@]1(O)O[C@H](c1cc(OC)c3c(c1)OCO3)[C@H]2C` [compound (2c), ferrearin G], the “cytotoxicity to neuroblastoma cells” value is “intense cytotoxicity”.

On to `C=CC[C@]12CC=CC(=O)[C@@]1(O)O[C@H](c1ccc(OC)c(OC)c1)[C@H]2C` [compound (2a)], for which the “cytotoxicity to neuroblastoma cells” value is on record as “intense cytotoxicity”.
